Publication PMC5975898, “Cationic porphyrins are tunable gatekeepers of the 20S proteasome” (Chemical Science, 2015)
Like-named read-outs stand apart in the source and are kept apart here.

Key:
[1] = biological target: T1, human 20S proteasome T-L activity; assay: 20S proteasome T-L activity inhibition assay (Ac-Arg-Leu-Arg-AMC); type: biochemical
T1 construct: purchased Boston Biochem
Method: (§1) Purified human 20S proteasome and the fluorogenic substrates Suc-LLVY-AMC, Z-Leu-Leu-Glu-AMC, and Ac-Arg-Leu-Arg-AMC used to test the ChT-L, PGPH-L, and T-L activity, respectively, were purchased from Boston Biochem (Cambridge, MA, USA).
(§2) Proteasome activity assays were performed in vitro by mixing 20S proteasome (2 nM) with 100 μM of the proper fluorogenic peptide in the assay buffer (i.e., 25 mM HEPES, 0.5 mM EDTA, pH 7.6) in a 384 multiwell black plate. […] A minimum of three replicates were performed for each data point. Data are expressed as normalized percentages of residual activity considering the slope of the control (fluorogenic peptide/proteasome in the absence of inhibitors) as 100% of proteasome activity. Dose–response plots of the residual proteasome activity in the presence of increasing concentration of inhibitor provides a quantitative estimate of its potency. […] The estimation of the IC50 is based on a nonlinear fit with the equation:2 [drawing 2]
(§3) The IC50 values and their standard errors were deduced from the fitting. […] The resulting catalytic parameter are Km, corresponding to the apparent affinity constant (or Michaelis–Menten constant) of substrate for the free enzyme (to form the ES complex), and kcat, corresponding to the velocity of the rate-limiting step during the enzymatic activity. […] The mechanism of inhibition of the 20S proteasome ChT-L activity by the inhibitors was analyzed by modified double-reciprocal plot, as from the following equations for the different inhibitory mechanisms:4a [drawing 4]

[2] = biological target: T2, human 20S proteasome PGPH-L activity; assay: 20S proteasome PGPH-L activity inhibition assay (Z-Leu-Leu-Glu-AMC); type: biochemical
T2 construct: purchased Boston Biochem
Method: as §1, §2, §3

[3] = biological target: T3, human 20S proteasome ChT-L activity; assay: 20S proteasome ChT-L activity inhibition assay (Suc-LLVY-AMC); type: biochemical
T3 construct: purchased Boston Biochem
Method: as §1, §2, §3

[4] = tested on: T3, human 20S proteasome ChT-L activity; assay: Steady-state enzyme kinetics of ChT-L inhibition (Lineweaver-Burk plot); type: biochemical
Excerpt: Analysis of enzyme kinetics may provide valuable insights in the understanding of inhibition mechanisms. To this aim, we have addressed the inhibition mechanism of the title compound H2T4 by determining the ChT-L activity of the CP at different concentrations of substrate and inhibitor. Since H2T4 inhibits all the three proteolytic functions of the CP with a similar potency, one can assume that the inhibition mechanism is similar for all enzymatic activities.
Fig. 6 Double reciprocal Lineweaver–Burk plot of substrate enzymatic 20S processing in the absence of inhibitor (○) and in the presence of 0.5 μM (×), 1 μM (+), 3 μM (*), 10 μM (⊗) and 20 μM inhibitor (⊕) for various concentrations of the substrate Suc-LLVY-AMC (from 6 to 100 μM).
The IC50 values and their standard errors were deduced from the fitting. Data relative to CP activities at different substrate/inhibitor concentrations have been analyzed by a double reciprocal Lineweaver–Burk plot, according to the following equation:3 [drawing 3] where [E0] is the enzyme concentration, ν is the observed velocity (expressed as moles of substrate cleaved per time interval unit) and [S] is the substrate concentration. […] The mechanism of inhibition of the 20S proteasome ChT-L activity by the inhibitors was analyzed by modified double-reciprocal plot, as from the following equations for the different inhibitory mechanisms:4a [drawing 4] […]

[5] = tested on: T3, human 20S proteasome ChT-L activity; assay: Pre-steady-state kinetics of ChT-L inhibition (time course of fluorescent product, Runge-Kutta simulation); type: biochemical; conditions: 2 nM 20S, 100 μM Suc-LLVY-AMC; constrained to KI = k–I/k+I
Method: The kinetic parameters of H2T4 binding to the CP have also been determined as a function of time (as described in Experimental). Fig. 7 reports the time evolution of the fluorescent product obtained by mixing at t = 0 both the substrate (100 μM final concentration) and H2T4 at different concentrations, as reported in the figure legend; the fluorescent signal was transformed into molar concentrations of fluorescent product through a calibration curve resulting from the complete processing of known concentration of substrate. […]
The interaction of H2T4 with 20S proteasome has been also investigated from the pre-steady-state kinetic standpoint. Briefly, these assays were performed without incubation time, by direct addition of different concentrations of H2T4 in samples where the Ch-L activity was already being monitored. The extent and the rate of inhibition were determined by following the time-dependent fluorescent signal of the cleaved substrate for 25 additional minutes. Data have been analyzed according to a second-order Runge–Kutta simulation procedure based on a simple competitive inhibition mechanism, such as in Scheme 1.
The time evolution of each species reported in Scheme 1 was calculated at discrete time intervals dt. […]

20S proteasome = tested on: T4, 20S proteasome; assay: Stopped-flow UV spectroscopy of H2T4 binding to 20S proteasome; set-up: species or system human; conditions: 421 nm, 37 °C
T4 construct: purchased Boston Biochem
Excerpt: In order to find a closer correlation between experimental observations and molecular modeling we have carried out a kinetic investigation of the interaction between H2T4 and 20S proteasome by stopped-flow. […] Data have been analyzed according to the following equation1 [drawing 1] where ΔODobs is the observed optical density change at a given time, r is the total number of exponentials during the reaction time course, ΔODi is the optical density change corresponding to the exponential i, ki is the rate constant associated to the exponential i, t is the time.
Fig. 11 Optical density changes at 421 nm for the mixing at 37 °C of 1 nM 20S proteasome with different concentrations of H2T4, namely 1 μM (curve a), 2 μM (curve b) and 5 μM (curve c). Continuous lines correspond to the non-linear least-squares fitting of data with two exponentials according to eqn (1), employing parameters reported in Table 1.
However, it is important to outline that kinetics reported in Fig. 11 are characterized by a multiphasic pattern with different patterns of concentration dependence of the rate constants. […] Therefore, on the basis of molecular modeling studies, these kinetic data can be accounted for by assuming that there is a first faster interaction with the N-terminal tails of the α subunits, characterized by k1, likely corresponding to the first encountering of the porphyrin with the α-subunits plane in a perpendicular geometry (Fig. 10A). […] The values ≈0 for the dissociation rate constants (Table 1) simply means that the rate is very slow and the interaction is very strong.

[6] = read-out: IC50 T-L (Figure S1), figure inset, semi-log plot of residual CP activity
[7] = read-out: IC50 best-fit value, T-L activity (Table S1), nonlinear fit of dose-response plot
[8] = read-out: IC50 PGPH-L (Figure S1), figure inset, semi-log plot of residual CP activity
[9] = read-out: IC50 best-fit value, PGPH-L activity (Table S1), nonlinear fit of dose-response plot
[10] = read-out: IC50 ChT-L (Figure S1), figure inset, semi-log plot of residual CP activity
[11] = read-out: IC50 best-fit value, ChT-L activity (Table S1), nonlinear fit of dose-response plot

## C[n+]1ccc(-c2c3nc(c(-c4cc[n+](C)cc4)c4ccc([nH]4)c(-c4cc[n+](C)cc4)c4nc(c(-c5cc[n+](C)cc5)c5ccc2[nH]5)C=C4)C=C3)cc1 [H2T4, meso-tetrakis(4-N-methylpyridyl)-porphyrin]
[1]; [6]
  IC50: 460 nM
[1]; [7]
  IC50: 466 nM
[2]; [8]
  IC50: 300 nM
[2]; [9]
  IC50: 301 nM
[3]; [10]
  IC50: 470 nM
[3]; [11]
  IC50: 469 nM
[4]; Lineweaver-Burk plot
  inhibition mechanism: competitive mechanism
[4]; read-out: inhibitor affinity constant KI, Suc-LLVY-AMC 6 to 100 μM, fit with eqn (4a)
  Ki: 360 nM
[5]
  k+I: 1.3 × 10^4 M^–1 s^–1
  k–I: 4.7 × 10^–3 s^–1
20S proteasome; 1 nM 20S, 1-5 μM H2T4
  off k1: ∼0 s^–1
  off k2: ∼0 s^–1
  on k1: 5.65 (±0.74) × 10^4 M^–1 s^–1
  on k2: 1.28 (±0.31) × 10^4 M^–1 s^–1
20S proteasome; rate independent of porphyrin concentration
  k3: 3.23 (±0.81) × 10^–3 s^–1

## C[n+]1cccc(-c2c3nc(c(-c4ccc[n+](C)c4)c4ccc([nH]4)c(-c4ccc[n+](C)c4)c4nc(c(-c5ccc[n+](C)c5)c5ccc2[nH]5)C=C4)C=C3)c1 [meta-H2T4, meso-tetra(3-N-metil-pyridyl) porphyrin]
[1]; [6]
  IC50: 1160 nM
[1]; [7]
  IC50: 1160 nM
[2]; [8]
  IC50: 210 nM
[2]; [9]
  IC50: 211 nM
[3]; [10]
  IC50: 930 nM
[3]; [11]
  IC50: 931 nM
